The values below come from patent US8389526B2, “3-heteroarylmethyl-imidazo[1,2-b]pyridazin-6-yl derivatives” (Novartis AG, priority 2009, dated 2013).

For experiment [1], the system named is MET-amplified gastric cancer cell line GTL-16. Put plainly: GTL-16 proliferation assay (MTS). Format: cell-based. Particulars: Homo sapiens, GTL-16 cells, 72 h incubation. As for the experimental part:
(§1) C-Met Dependent Cellular Assays
(§2) A number of compounds of the present invention were assayed in a c-Met dependent proliferation and phosphorylation assay as follows.
GTL-16 proliferation assay: the MET-amplified gastric cancer cell line GTL-16 was grown under standard cell culture conditions in DMEM [Dulbecco's Modified Eagle Medium] (high glucose) supplemented with 10% heat-inactivated fetal calf serum and 2 mM L-glutamine. For proliferation assays, cells were seeded at 3000 per well in 96-well-plates. 24 h later, a 10-point dilution series of each compound (3-fold steps, ranging from […]) was prepared in DMSO. Compound were then diluted 1000-fold in growth media in two steps and added to cells in triplicates, resulting in a final volume of […] per well and maximal final compound concentrations of […]. A DMSO-only control was included. Cells were incubated for 72 h and the amount of viable cells was then measured by adding […] of MTS reagent (CellTiter 96® AQueous Non-Radioactive Cell Proliferation Assay, Promega), further incubation for 30′, and reading the optical density at 490 nm.

For experiment [2], the target named is T1, c-Met receptor tyrosine kinase, GST-c-Met(969-1390) (Homo sapiens, UniProt P08581).
T1 construct: made in house
T1 sequence (P08581 969-1390): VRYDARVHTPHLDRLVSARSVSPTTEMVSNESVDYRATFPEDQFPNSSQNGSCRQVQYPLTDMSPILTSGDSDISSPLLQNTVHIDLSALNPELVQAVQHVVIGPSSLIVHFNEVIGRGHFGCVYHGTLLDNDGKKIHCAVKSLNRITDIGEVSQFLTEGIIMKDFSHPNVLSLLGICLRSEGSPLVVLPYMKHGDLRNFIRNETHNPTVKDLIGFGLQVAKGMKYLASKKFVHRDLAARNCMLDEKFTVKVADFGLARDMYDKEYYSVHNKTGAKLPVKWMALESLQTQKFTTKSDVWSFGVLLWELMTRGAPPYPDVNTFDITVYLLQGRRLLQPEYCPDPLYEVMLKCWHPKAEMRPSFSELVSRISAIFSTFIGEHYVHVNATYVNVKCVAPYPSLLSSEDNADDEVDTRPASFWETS
Kind of experiment: EPK c-Met profiling assay (LanthaScreen TR-FRET kinase assay). Format: biochemical. Particulars: 2 μM ATP, 0.3 nM enzyme, 60 minutes at room temperature. As for the experimental part:
A number of compounds of the present invention were assayed in an antibody based kinase phosphorylation assay as follows.
Epk c-Met Profiling Assay:
The EPK kinase assay for c-Met receptor tyrosine kinase was developed, using the purified recombinant GST-fusion protein, containing the cytoplasmic domain of the enzyme. GST-c-Met(969-1390) was purified by affinity chromatography.
The kinase assay is based on the LanthaScreen™ technology. LanthaScreen™ is the detection of Time-Resolved Fluorescence Resonance Energy Transfer (TR-FRET) using lanthanide chelates to measure interactions between various binding partners. In a TR-FRET kinase assay, a long-lifetime lanthanide donor species is conjugated to an antibody that specifically binds to a phosphorylated product of a kinase reaction that is labeled with a suitable acceptor fluorophore. This antibody-mediated interaction brings the lanthanide donor and the acceptor into proximity such that resonance energy transfer can take place, resulting in a detectible increase in the FRET signal.
The kinase reactions were performed in 384 well microtiter plates in a total reaction volume of 9.05 μL. The assay plates were prepared with 0.05 μL per well of test compound in the appropriate test concentration, as described under “preparation of compound dilutions”. The reactions were started by combining 4.5 μL of ATP solution with 4.5 μL of enzyme-substrate mix (consisting of kinase and substrate). The final concentrations in the kinase reactions were 35 mM Tris/HCl, 1 mM DTT, 0.025% Tween20, 10 μM sodium orthovanadate, 0.25% BSA, 0.6% DMSO, 10 mM MgCl2, 3 mM MnCl2, 2 μM ATP, 50 nM Fluorescein-PolyEAY, and 0.3 nM enzyme.
The reactions were incubated for 60 minutes at room temperature and stopped by adding 4.5 μL of stop buffer (50 mM EDTA, 0.04% NP40, 20 mM Tris/HCl).
Subsequently 4.5 μL of detection mix (50 mM Tris/HCl, 2 mM DTT, 0.05% Tween20, 20 μM sodium orthovanadate, 1% BSA, 1.72 μg/mL Tb-PY20 antibody) were added to the stopped reactions. After 30 minutes incubation at room temperature, the plates were measured in a BMG Pherastar fluorescence reader. The effect of compound on the enzymatic activity was in all assays obtained from the linear progress curves and determined from one reading (end point measurement).
Preparation of Compound Dilutions
Test compounds were dissolved in DMSO (10 mM) and transferred into 1.4 mL flat bottom or V-shaped Matrix tubes carrying a unique 2D matrix. The stock solutions were stored at −20° C. if not used immediately. For the test procedure the vials were defrosted and identified by a scanner whereby a working sheet was generated that guided the subsequent working steps.
Compound dilutions were made in 96 well plates. This format enabled the assay of maximally 40 individual test compounds at 8 concentrations (single points) including 4 reference compounds. The dilution protocol included the production of “pre-dilution plates”, “master plates” and “assay plates”.
Pre-dilution plates: 96 polypropylene well plates were used as pre-dilution plates. A total of 4 pre-dilution plates were prepared including 10 test compounds each on the plate positions A1-A10, one standard compound at A11 and one DMSO control at A12. All dilution steps were done on a HamiltonSTAR robot.
Master plates: 100 μL of individual compound dilutions including standard compound and controls of the 4 “pre-dilution plates” were transferred into a 384 “master plate” including the following concentrations 1′820, 564, 182, 54.6, 18.2, 5.46, 1.82 and 0.546 μM, respectively in 90% of DMSO.
Assay plates: Identical “assay plates” were then prepared by pipetting 50 nL each of compound dilutions of the “master plates” into 384-well “assay plates” by means of a HummingBird 384-channel dispenser. These plates were used directly for the assay which was performed in a total volume of 9.05 μL. […]
Background: TR-FRET usually uses a lanthanide donor and a delayed reading to cut background.

For another experiment, the target named is T2, c-Met (Homo sapiens, UniProt P08581).
T2 construct: adapted to measure the phosphorylation of endogenous cellular proteins in cell lysates; endogenous in cells; host or cells: GTL-16
T2 sequence (P08581 25-1390): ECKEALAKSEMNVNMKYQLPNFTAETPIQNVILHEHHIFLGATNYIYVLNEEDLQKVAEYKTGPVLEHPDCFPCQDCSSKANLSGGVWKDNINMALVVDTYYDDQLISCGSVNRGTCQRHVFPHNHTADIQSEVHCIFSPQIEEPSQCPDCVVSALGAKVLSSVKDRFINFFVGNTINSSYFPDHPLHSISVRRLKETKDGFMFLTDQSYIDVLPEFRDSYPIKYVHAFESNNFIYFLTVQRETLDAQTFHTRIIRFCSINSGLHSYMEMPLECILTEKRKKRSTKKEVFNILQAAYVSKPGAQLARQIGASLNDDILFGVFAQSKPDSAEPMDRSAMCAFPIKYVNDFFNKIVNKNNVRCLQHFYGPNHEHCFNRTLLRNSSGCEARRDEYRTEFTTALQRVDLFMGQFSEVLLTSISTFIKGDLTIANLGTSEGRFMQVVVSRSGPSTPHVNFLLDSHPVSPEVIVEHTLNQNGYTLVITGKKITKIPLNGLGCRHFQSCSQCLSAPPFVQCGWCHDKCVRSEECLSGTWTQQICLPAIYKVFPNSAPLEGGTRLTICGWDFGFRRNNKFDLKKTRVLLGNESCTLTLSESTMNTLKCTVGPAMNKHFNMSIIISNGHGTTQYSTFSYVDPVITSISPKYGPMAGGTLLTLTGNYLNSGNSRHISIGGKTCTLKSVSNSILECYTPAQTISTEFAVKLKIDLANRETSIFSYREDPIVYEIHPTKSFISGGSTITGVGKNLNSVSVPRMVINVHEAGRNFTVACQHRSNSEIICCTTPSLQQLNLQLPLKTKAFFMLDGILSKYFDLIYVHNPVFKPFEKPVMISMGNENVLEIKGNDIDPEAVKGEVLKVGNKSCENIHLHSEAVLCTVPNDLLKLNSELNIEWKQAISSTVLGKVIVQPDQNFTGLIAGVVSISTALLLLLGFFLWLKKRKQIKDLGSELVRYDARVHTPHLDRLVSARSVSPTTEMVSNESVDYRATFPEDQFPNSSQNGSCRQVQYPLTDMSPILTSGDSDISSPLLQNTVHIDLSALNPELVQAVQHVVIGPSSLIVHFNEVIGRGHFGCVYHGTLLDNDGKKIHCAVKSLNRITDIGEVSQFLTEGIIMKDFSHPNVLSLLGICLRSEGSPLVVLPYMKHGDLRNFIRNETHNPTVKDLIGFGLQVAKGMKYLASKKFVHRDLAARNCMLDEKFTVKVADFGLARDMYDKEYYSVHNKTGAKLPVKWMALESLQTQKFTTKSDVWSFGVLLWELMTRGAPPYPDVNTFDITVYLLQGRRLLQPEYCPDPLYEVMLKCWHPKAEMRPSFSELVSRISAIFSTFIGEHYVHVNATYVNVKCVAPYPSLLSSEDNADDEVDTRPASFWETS
Kind of experiment: GTL-16 c-Met autophosphorylation measured by AlphaScreen detection. Particulars: GTL-16 cells, 1 h incubation, AlphaScreen p-c-Met; read-out: GTL-16 IC50 c-Met phosphorylation. Format: cell-based. As for the experimental part: as §1, §2
GTL-16 c-Met autophosphorylation measured by AlphaScreen® detection: the human MET-amplified gastric cancer cells GTL-16 were plated in 384-well plates at a density of 10′000 cells in 20 ul complete growth medium (DMEM high glucose supplemented with 10% (v/v) heat inactivated fetal calf serum and of 1 mM sodium pyruvate) and were incubated at […]/5% CO2/95% humidity for 20 h. The cells were washed and the 30 ul assay buffer (DMEM high glucose, 1 mM sodium pyruvate, 0.1% bovine serum albumine) was added. Compounds were diluted in 384-well compound plates to obtain 8-point serial dilutions for 40 test compounds in 90% DMSO, as well as a reference compound plus 16 high- and 16 low (inhibited) controls. These compound plates were prediluted 1:200 in assay buffer into a compound predilution plate and 10 ul of prediluted compound solution were transferred to the cell plate using a 384-well pipettor, resulting in a final DMSO concentration of 0.11%. Cells were incubated for 1 h at […]/5% CO2/95% humidity. The supernatant was removed, the cells were lysed in 25 ul of RIPA [radio immuno precipitation assay] lysis buffer supplemented with 2 mM sodium vanadate and a protease inhibitor cocktail, and cell plates were stored at −80° C.
For detection of p-c-Met, an AlphaScreen®-based assay was used. AlphaScreen® (Amplified Luminescent Proximity Homogeneous Assay, ALPHA, Perkin Elmer, U.S.A) is a non-radioactive bead-based proximity assay technology to study biomolecular interactions in a homogenous microtiter plate format. This technique has been adapted to measure the phosphorylation of endogenous cellular proteins in cell lysates by the use of specific antibody pairs against the total protein and a phospho-specific epitope. 5 ul of cell lysate was transferred to 384-well low volume Proxiplates for detection using a 384-well pipettor. First, 5 ul of a premix of an anti-c-Met antibody (0.25 ug/ml f.c.), a biotinylated PY20 antibody (phosphotyrosine antibody, 0.05 ug/ml f.c.) and AlphaScreen® Protein A-coupled acceptor beads (10 ug/ml f.c.) in RIPA buffer supplemented with 0.25% (v/w) TOP BLOCK, 2 mM sodium vanadate, and a protease inhibitor cocktail and was added, the plate was sealed, and incubated on a plate shaker for 2 hours at room temperature. Second, 2 ul of dilution buffer containing AlphaScreen® Streptavidin-coated donor beads (10 ug/ml f.c.) in RIPA buffer was added, and the plate was incubated on plate shaker as above for a further 2 hours. The plate was read on an AlphaScreen® compatible plate reader, using standard AlphaScreen® settings.
For orientation: Alpha assays give light when donor and acceptor beads are brought close together.

Some results are limits rather than exact numbers.

One may read the IC50 as the midpoint of a concentration-inhibition curve. Turning to `CC(c1c(F)cc2ncccc2c1F)c1cnc2ccc(N3CCN(c4ccccn4)C(=O)C3)nn12` (racemic) [Example 25, (rac)-4-{3-[1-(5,7-Difluoro-quinolin-6-yl)-ethyl]-imidazo[1,2-b]pyridazin-6-yl}-1-(pyridin-2-yl)piperazin-2-one], the IC50 stood at 13 nM in experiment [1], 15 nM in experiment [2] and 8 nM at c-Met.
The like results for `Cn1ncc2c(F)c(Cc3cnc4ccc(N5CCNC(=O)C5)nn34)c(F)cc21` [Example 54, 4-[3-(4,6-Difluoro-1-methyl-1H-indazol-5-ylmethyl)-imidazo[1,2-b]pyridazin-6-yl]-piperazin-2-one] were, in that order, 36 nM, 20 nM and less than 3 nM.
The like results for `CC(c1c(F)cc2c(cnn2C)c1F)c1cnc2ccc(N3CCN(C)C(=O)C3)nn12` (racemic) [Example 49, (rac)-4-(3-(1-(4,6-difluoro-1-methyl-1H-indazol-5-yl)ethyl)imidazo[1,2-b]pyridazin-6-yl)-1-methylpiperazin-2-one] were, in that order, 29 nM, 16 nM and 6.5 nM.
The corresponding values for `CC(=O)N1CCN(c2ccc3ncc(C(C)c4c(F)cc5ncccc5c4F)n3n2)CC1` (racemic) [Example 10, (rac)-1-(4-{3-[1-(5,7-Difluoro-quinolin-6-yl)-ethyl]-imidazo[1,2-b]pyridazin-6-yl}-piperazin-1-yl)ethanone] are 14.6 nM, less than 3 nM and less than 3 nM.
Consider `C[C@@H](c1c(F)cc2ncccc2c1F)c1cnc2ccc(N3CCNC(=O)[C@@H]3C)nn12` [Example 60, (S)-4-{3-[(S)-1-(5,7-Difluoro-quinolin-6-yl)-ethyl]-imidazo[1,2-b]pyridazin-6-yl}-3-methyl-piperazin-2-one], for which the IC50 in experiment [1] is 4.8 nM; in experiment [2] it was 2.6 nM; at c-Met it was 2.3 nM.
The like results for `COC(=O)N1CCN(c2ccc3ncc(Cc4c(F)cc5ncccc5c4F)n3n2)CC1` [Example 36, 4-[3-(5,7-Difluoro-quinolin-6-ylmethyl)-imidazo[1,2-b]pyridazin-6-yl]-piperazine-1-carboxylic acid methyl ester] were, in that order, 25 nM, 11 nM and less than 3 nM.
Take `CC(c1cc2cnn(C)c2cc1F)c1cnc2ccc(N3CCNC(=O)C3)nn12` (racemic) [Example 27, (rac)-4-{3-[1-(6-Fluoro-1-methyl-1H-indazol-5-yl)-ethyl]-imidazo[1,2-b]pyridazin-6-yl}-piperazin-2-one]: the IC50 in experiment [1] was 173 nM; in experiment [2], 73 nM; on c-Met, 3 nM.
As for `CC(c1c(F)cc2ncccc2c1F)c1cnc2ccc(N3CCNCC3)nn12` (racemic) [Example 6, (rac)-5,7-Difluoro-6-[1-(6-piperazin-1-yl-imidazo[1,2-b]pyridazin-3-yl)-ethyl]-quinoline], the IC50 in experiment [1] came out at 11.6 nM; in experiment [2] it was 4.5 nM; on c-Met, 3 nM.
Take `C[C@@H](c1c(F)cc2ncccc2c1F)c1cnc2ccc(N3CCN(C=O)CC3)nn12` [Example 13, 4-{3-[(S)-1-(5,7-Difluoro-quinolin-6-yl)-ethyl]-imidazo[1,2-b]pyridazin-6-yl}-piperazine-1-carbaldehyde]: the 50% inhibitory concentration (IC50) in experiment [1] was 9.2 nM; in experiment [2] it was less than 3 nM; on c-Met it was 2.5 nM.
In the case of `Fc1cc2ncccc2c(F)c1Cc1cnc2ccc(N3CCNCC3)nn12` [Example 32, 5,7-Difluoro-6-(6-piperazin-1-yl-imidazo[1,2-b]pyridazin-3-ylmethyl)-quinoline], the values for the IC50 (in experiment [1]; in experiment [2]; on c-Met) were 25 nM, 7.4 nM and less than 3 nM, respectively.
As for `CC(=O)N1CCN(c2ccc3ncc([C@@H](C)c4cc5cnn(C)c5cc4F)n3n2)CC1` [Example 29, 1-(4-{3-[(S)-1-(6-Fluoro-1-methyl-1H-indazol-5-yl)-ethyl]-imidazo[1,2-b]pyridazin-6-yl}-piperazin-1-yl)-ethanone], the IC50 in experiment [1] was found to be 136 nM; in experiment [2], 55 nM; on c-Met it was 25 nM.
As to `C[C@@H](c1c(F)cc2ncccc2c1F)c1cnc2ccc(N3CCNC(=O)[C@H]3C)nn12` [Example 59, (R)-4-{3-[(S)-1-(5,7-Difluoro-quinolin-6-yl)-ethyl]-imidazo[1,2-b]pyridazin-6-yl}-3-methyl-piperazin-2-one], the figures for the IC50 (in experiment [1]; in experiment [2]; at c-Met) were 5.6 nM, 3 nM and 3.6 nM, respectively.
As to `O=C1CN(c2ccc3ncc(Cc4c(F)cc5ncccc5c4F)n3n2)CCN1` [Example 31, 4-[3-(5,7-Difluoro-quinolin-6-ylmethyl)-imidazo[1,2-b]pyridazin-6-yl]-piperazin-2-one], the values for the 50% inhibitory concentration (IC50) (in experiment [1]; in experiment [2]; at c-Met) were 15 nM, 8.2 nM and 4.7 nM, respectively.
